Laboratory results taken from patent US5585491A, “Antibacterial agents” (Otsuka Pharmaceutical Co., Ltd., priority 1995, dated 1996).
Converted amounts (≈) assume the structure as drawn. Where two headings read alike, the source gives them in different places.

How the values were obtained:
Assay in all cases: In vitro antibacterial activity, microtitration dilution method (MIC)
Type in all cases: cell-based
[1] = tested on: Enterobacter cloacae MA 2646
Description: (§1) The compounds of the invention display antibacterial activity when tested by the microtitration dilution method as described in Heifetz, et al, Antimicr. Agents & Chemoth., 6, 124 (1974), which is incorporated herein by reference. By use of this method, the followed minimum inhibitory concentration values (MICs in μg/mL) were obtained for representative compounds of the invention.

[2] = tested on: Staphylococcus aureus H 228; conditions: H228; Staphylococcus aureus H 228, microtitration dilution; read-out: Minimal Inhibitory Concentration MIC
Description: as §1

[3] = tested on: Streptococcus pyogenes C-203; conditions: C203; Streptococcus pyogenes C-203, microtitration dilution; read-out: Minimal Inhibitory Concentration MIC
Description: as §1

Escherichia coli Vogel = conditions: read-out: Minimal Inhibitory Concentration MIC
Description: as §1

[4] = tested on: Klebsiella pneumoniae MGH-2
Description: (§2) Agents & Chemoth., 6, 124 (1974), which is incorporated herein by reference.

[5] = tested on: Streptococcus pneumoniae SV-1
Description: as §2

[6] = tested on: Pseudomonas aeruginosa UI-18; conditions: UI18; Pseudomonas aeruginosa UI-18, microtitration dilution; read-out: Minimal Inhibitory Concentration MIC
Description: as §2

[7] = tested on: Streptococcus faecalis MGH-2; conditions: Enterococcus faecalis
Description: as §2

[8] = tested on: Staphylococcus aureus UC-76
Description: as §2

Proteus rettgeri M 1771 = conditions: Providencia rettgeri
Description: as §2

[9] = MA2646, Enterobacter cloacae MA 2646, microtitration dilution, read-out: Minimal Inhibitory Concentration MIC
[10] = Escherichia coli Vogel, microtitration dilution
[11] = MGH2, Klebsiella pneumoniae MGH-2, microtitration dilution, read-out: Minimal Inhibitory Concentration MIC
[12] = SV1, Streptococcus pneumoniae SV-1, microtitration dilution, read-out: Minimal Inhibitory Concentration MIC
[13] = MGH2, Streptococcus faecalis MGH-2, microtitration dilution, read-out: Minimal Inhibitory Concentration MIC
[14] = UC76, Staphylococcus aureus UC-76, microtitration dilution, read-out: Minimal Inhibitory Concentration MIC
[15] = M1771, Proteus rettgeri M 1771, microtitration dilution, read-out: Minimal Inhibitory Concentration MIC
[16] = Enterobacter cloacae, MA2646, read-out: Minimal Inhibitory Concentration MIC
[17] = Staphylococcus aureus, UC76, read-out: Minimal Inhibitory Concentration MIC
[18] = MGH2, read-out: Minimal Inhibitory Concentration MIC
[19] = Klebsiella pneumoniae, MGH2, read-out: Minimal Inhibitory Concentration MIC

Compound | MIC [1, 9] [µg/mL] | MIC [2] [µg/mL] | MIC [3] [µg/mL] | MIC (Escherichia coli Vogel; [10]) [µg/mL] | MIC [4, 11] [µg/mL] | MIC [5, 12] [µg/mL] | MIC [6] [µg/mL] | MIC [7, 13] [µg/mL] | MIC [8, 14] [µg/mL] | MIC (Proteus rettgeri M 1771; [15]) [µg/mL] | MIC [1, 16] [µg/mL] | MIC (Escherichia coli Vogel; Escherichia coli) [µg/mL] | MIC [8, 17] [µg/mL] | MIC ([5]; Streptococcus pneumoniae, SV1, read-out: Minimal Inhibitory Concentration MIC) [µg/mL] | MIC [7, 18] [µg/mL] | MIC [4, 19] [µg/mL] | MIC (Proteus rettgeri M 1771; M1771, read-out: Minimal Inhibitory Concentration MIC) [µg/mL]
Cc1c(F)c(N2CCNC(C)C2)cc2c1c(=O)c(C(=O)O)cn2C1CC1 (stereo not shown) [Ex. 7, 1-Cyclopropyl-6-fluoro-1,4-dihydro-5-methyl-7-(3-methyl-1-piperazinyl)-4-oxo-3-quinolinecarboxylic acid] | 0.025 (≈ 0.0696 µM) | 0.1 (≈ 0.278 µM) | 0.05 (≈ 0.139 µM) | 0.013 (≈ 0.0362 µM) | 0.05 (≈ 0.139 µM) | 0.025 (≈ 0.0696 µM) | 0.8 (≈ 2.23 µM) | 0.1 (≈ 0.278 µM) | 0.025 (≈ 0.0696 µM) | 0.2 (≈ 0.556 µM) |  |  |  |  |  |  | 
Cc1c(F)c(N2CCC(N)C2)cc2c1c(=O)c(C(=O)O)cn2C1CC1 (stereo not shown) [Ex. 8, 7-(3-Amino-1-pyrrolidinyl)-1-cyclopropyl-6-fluoro-1,4-dihydro-5-methyl-4-oxo-3-quinolinecarboxylic acid] |  | 0.1 (≈ 0.29 µM) | 0.025 (≈ 0.0724 µM) | 0.025 (≈ 0.0724 µM) | 0.1 (≈ 0.29 µM) | 0.013 (≈ 0.0376 µM) | 0.4 (≈ 1.16 µM) | 0.4 (≈ 1.16 µM) | 0.025 (≈ 0.0724 µM) | 0.1 (≈ 0.29 µM) | 0.05 (≈ 0.145 µM) |  |  |  |  |  | 
Cc1c(F)c(N2CCC(C)(CN)C2)cc2c1c(=O)c(C(=O)O)cn2C1CC1 (stereo not shown) [Ex. 9, 7-[3-(Aminomethyl)-3-methyl-1-pyrrolidinyl]-1-cyclopropyl-6-fluoro-1,4-dihydro-5-methyl-4-oxo-3-quinolinecarboxylic acid] | 0.1 (≈ 0.268 µM) | 0.025 (≈ 0.0669 µM) | 0.013 (≈ 0.0348 µM) | 0.1 (≈ 0.268 µM) | 0.4 (≈ 1.07 µM) | 0.006 (≈ 0.0161 µM) | 1.6 (≈ 4.28 µM) | 0.1 (≈ 0.268 µM) | 0.006 (≈ 0.0161 µM) | 0.8 (≈ 2.14 µM) |  |  |  |  |  |  | 
Cc1c(F)c(N2CCNCC2)c(Cl)c2c1c(=O)c(C(=O)O)cn2C1CC1 [Ex. 10, 8-Chloro-1-cyclopropyl-6-fluoro-1,4-dihydro-5-methyl-4-oxo-7-(1-piperazinyl)-3-quinolinecarboxylic acid] |  | 0.05 (≈ 0.132 µM) | 0.2 (≈ 0.527 µM) | 0.025 (≈ 0.0658 µM) | 0.1 (≈ 0.263 µM) | 0.1 (≈ 0.263 µM) | 0.2 (≈ 0.527 µM) | 0.2 (≈ 0.527 µM) | 0.025 (≈ 0.0658 µM) | 0.2 (≈ 0.527 µM) | 0.05 (≈ 0.132 µM) |  |  |  |  |  | 
Cc1c(F)c(N2CCC(N)C2)c(Cl)c2c1c(=O)c(C(=O)O)cn2C1CC1 (stereo not shown) [Ex. 11, 7-(3-Amino-1-pyrrolidinyl)-8-chloro-1-cyclopropyl-6-fluoro-1,4-dihydro-5-methyl-4-oxo-3-quinolinecarboxylic acid] |  | 0.025 (≈ 0.0658 µM) | 0.05 (≈ 0.132 µM) | 0.013 (≈ 0.0342 µM) | 0.05 (≈ 0.132 µM) | 0.025 (≈ 0.0658 µM) | 0.2 (≈ 0.527 µM) | 0.05 (≈ 0.132 µM) | 0.013 (≈ 0.0342 µM) | 0.05 (≈ 0.132 µM) | 0.05 (≈ 0.132 µM) |  |  |  |  |  | 
CCn1cc(C(=O)O)c(=O)c2c(C)c(F)c(N3CCNCC3)c(F)c21 [Ex. 12, 1-Ethyl-6,8-difluoro-1,4-dihydro-5-methyl-4-oxo-7-(1-piperazinyl)-3-quinolinecarboxylic acid] |  | 0.8 (≈ 2.28 µM) | 12.5 (≈ 35.6 µM) |  | 0.2 (≈ 0.569 µM) | 6.3 (≈ 17.9 µM) | 1.6 (≈ 4.55 µM) | 3.1 (≈ 8.82 µM) |  | 0.4 (≈ 1.14 µM) | 0.05 (≈ 0.142 µM) | 0.05 (≈ 0.142 µM) | 0.2 (≈ 0.569 µM) |  |  |  | 
CCn1cc(C(=O)O)c(=O)c2c(C)c(F)c(N3CCC(N)C3)c(F)c21 (stereo not shown) [Ex. 13, 7-(3-Amino-1-pyrrolidinyl)-1-ethyl-6,8-difluoro-1,4-dihydro-5-methyl-4-oxo-3-quinolinecarboxylic acid] |  | 0.4 (≈ 1.14 µM) | 3.1 (≈ 8.82 µM) | 0.05 (≈ 0.142 µM) | 0.2 (≈ 0.569 µM) |  | 1.6 (≈ 4.55 µM) |  | 0.1 (≈ 0.285 µM) | 0.4 (≈ 1.14 µM) | 0.05 (≈ 0.142 µM) |  |  | 1.6 (≈ 4.55 µM) | 0.8 (≈ 2.28 µM) |  | 
Cc1c(F)c(N2CCNCC2)c(F)c2c1c(=O)c(C(=O)O)cn2-c1ccc(F)cc1F [Ex. 14, 6,8-Difluoro-1-(2,4-difluorophenyl)-1,4-dihydro-5-methyl-4-oxo-7-(1-piperazinyl)-3-quinolinecarboxylic acid] | 0.1 (≈ 0.23 µM) | 0.2 (≈ 0.459 µM) | 0.4 (≈ 0.919 µM) | 0.05 (≈ 0.115 µM) | 0.4 (≈ 0.919 µM) | 0.4 (≈ 0.919 µM) | 0.8 (≈ 1.84 µM) | 0.4 (≈ 0.919 µM) | 0.05 (≈ 0.115 µM) | 0.4 (≈ 0.919 µM) |  |  |  |  |  |  | 
Cc1c(F)c(N2CC(C)NC(C)C2)c(F)c2c1c(=O)c(C(=O)O)cn2-c1ccc(F)cc1F (stereo not shown) [Ex. 14a, 6,8-Difluoro-1-(2,4-difluorophenyl)-1,4-dihydro-5-methyl-7-(3,5-dimethyl-1-piperazinyl)-4-oxo-3-quinolinecarboxylic acid] | 0.4 (≈ 0.863 µM) | 0.4 (≈ 0.863 µM) | 1.6 (≈ 3.45 µM) | 0.4 (≈ 0.863 µM) | 1.6 (≈ 3.45 µM) | 0.8 (≈ 1.73 µM) | 3.1 (≈ 6.69 µM) | 1.6 (≈ 3.45 µM) |  | 3.1 (≈ 6.69 µM) |  |  | 0.2 (≈ 0.432 µM) |  |  |  | 
Cc1c(F)c(N2CCC(N)C2)c(F)c2c1c(=O)c(C(=O)O)cn2-c1ccc(F)cc1F (stereo not shown) [Ex. 15, 7(3-Amino-1-pyrrolidinyl)-6,8-difluoro-1-(2,4-difluorophenyl)-1,4-dihydro-5-methyl-4-oxo-3-quinolinecarboxylic acid] | 0.025 (≈ 0.0574 µM) | 0.05 (≈ 0.115 µM) | 0.1 (≈ 0.23 µM) | 0.025 (≈ 0.0574 µM) |  | 0.1 (≈ 0.23 µM) | 0.8 (≈ 1.84 µM) | 0.2 (≈ 0.459 µM) | 0.025 (≈ 0.0574 µM) | 0.2 (≈ 0.459 µM) |  |  |  |  |  | 0.1 (≈ 0.23 µM) | 
Cc1c(F)c(N2CCNCC2)cc2c1c(=O)c(C(=O)O)cn2-c1ccc(F)cc1F [Ex. 17, 6-Fluoro-1-(2,4-difluorophenyl)-1,4-dihydro-5-methyl-4-oxo-7-(1-piperazinyl)-3-quinolinecarboxylic acid] | 0.05 (≈ 0.12 µM) | 0.1 (≈ 0.24 µM) | 0.1 (≈ 0.24 µM) | 0.05 (≈ 0.12 µM) | 0.1 (≈ 0.24 µM) | 0.05 (≈ 0.12 µM) | 0.8 (≈ 1.92 µM) | 0.2 (≈ 0.479 µM) | 0.025 (≈ 0.0599 µM) | 0.2 (≈ 0.479 µM) |  |  |  |  |  |  | 
Cc1c(F)c(N2CCNC(C)C2)cc2c1c(=O)c(C(=O)O)cn2-c1ccc(F)cc1F (stereo not shown) [Ex. 17a, 6-Fluoro-1-(2,4-difluorophenyl)-1,4-dihydro-5-methyl-7-(3-methyl-1-piperazinyl)-4-oxo-3-quinolinecarboxylic acid] | 0.2 (≈ 0.464 µM) | 0.1 (≈ 0.232 µM) | 0.1 (≈ 0.232 µM) | 0.1 (≈ 0.232 µM) | 0.4 (≈ 0.927 µM) | 0.05 (≈ 0.116 µM) | 1.6 (≈ 3.71 µM) | 0.4 (≈ 0.927 µM) | 0.025 (≈ 0.0579 µM) | 0.8 (≈ 1.85 µM) |  |  |  |  |  |  | 
Cc1c(F)c(N2CC(C)NC(C)C2)cc2c1c(=O)c(C(=O)O)cn2-c1ccc(F)cc1F (stereo not shown) [Ex. 17b, 6-Fluoro-1-(2,4-difluorophenyl)-1,4-dihydro-5-methyl-7-(3,5-dimethyl-1-piperazinyl)-4-oxo-3-quinolinecarboxylic acid] | 0.4 (≈ 0.898 µM) | 0.1 (≈ 0.224 µM) | 0.1 (≈ 0.224 µM) | 0.2 (≈ 0.449 µM) | 0.8 (≈ 1.8 µM) | 0.05 (≈ 0.112 µM) | 1.6 (≈ 3.59 µM) |  | 0.05 (≈ 0.112 µM) | 1.6 (≈ 3.59 µM) |  |  |  |  | 0.8 (≈ 1.8 µM) |  | 
Cc1c(F)c(N2CCC(N)C2)cc2c1c(=O)c(C(=O)O)cn2-c1ccc(F)cc1F (stereo not shown) [Ex. 17c, 7-(3-Amino-1-pyrrolidinyl)-6-fluoro-1-(2,4-difluorophenyl)-1,4-dihydro-5-methyl-4-oxo-3-quinolinecarboxylic acid] |  | 0.05 (≈ 0.12 µM) | 0.05 (≈ 0.12 µM) | 0.05 (≈ 0.12 µM) |  | 0.025 (≈ 0.0599 µM) | 0.8 (≈ 1.92 µM) | 0.1 (≈ 0.24 µM) | 0.013 (≈ 0.0311 µM) | 0.2 (≈ 0.479 µM) | 0.05 (≈ 0.12 µM) |  |  |  |  | 0.1 (≈ 0.24 µM) | 
Cc1c(F)c(N2CCC(C)(CN)C2)cc2c1c(=O)c(C(=O)O)cn2-c1ccc(F)cc1F (stereo not shown) [Ex. 17e, 7-[3-(Aminomethyl)-3-methyl-1-pyrrolidinyl]-6-fluoro-1(2,4-difluorophenyl)-1,4-dihydro-5-methyl-4-oxo-3-quinolinecarboxylic acid] | 0.4 (≈ 0.898 µM) | 0.05 (≈ 0.112 µM) | 0.025 (≈ 0.0561 µM) | 0.4 (≈ 0.898 µM) | 0.8 (≈ 1.8 µM) | 0.013 (≈ 0.0292 µM) | 3.1 (≈ 6.96 µM) | 0.2 (≈ 0.449 µM) | 0.013 (≈ 0.0292 µM) | 0.8 (≈ 1.8 µM) |  |  |  |  |  |  | 
Cc1c(F)c(N2CCC(N)C2)nc2c1c(=O)c(C(=O)O)cn2C1CC1 (stereo not shown) [Ex. 18, 7-(3-Amino-1-pyrrolidinyl)-1-cyclopropyl-6-fluoro-1,4-dihydro-5-methyl-4-oxo-1,8-naphthyridine-3-carboxylic acid] | 0.013 (≈ 0.0375 µM) | 0.25 (≈ 0.722 µM) | 0.025 (≈ 0.0722 µM) | 0.013 (≈ 0.0375 µM) | 0.025 (≈ 0.0722 µM) | 0.013 (≈ 0.0375 µM) | 0.2 (≈ 0.577 µM) | 0.05 (≈ 0.144 µM) | 0.013 (≈ 0.0375 µM) |  |  |  |  |  |  |  | 0.1 (≈ 0.289 µM)
